Reference: patent US12157730B2, “Heteroaryl derivative, method for producing same, and pharmaceutical composition comprising same as effective component” (VORONOI INC., priority 2019, dated 2024)

Target: T1, Ba/F3 cell EGFR Exon20 ins NPH (Homo sapiens, UniProt P00533, INS773NPH)
T1 construct: expressed in transfected cells; host or cells: Ba/F3
Assay: Ba/F3 cell proliferation suppression, EGFR Exon20 ins NPH
Format: cell-based
Conditions: GI50 class; Ba/F3 cell line with NPH inserted at Exon20 of EGFR; 72 hours
Method in brief: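 72 h compound exposure, 0.3 nM–50 um (12 points, 3:1 dilution in DMSO); viability by CellTiter-Glo luminescence. Ba/F3 medium: RPMI-1640, 10% FBS, 5 ng/ml IL-3, 1 ug/ml puromycin for transduced cells. GI50 vs control, n=3.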

Structure (SMILES)	Ba/F3 (NPH) Activity
C=CC(=O)Nc1cc(Nc2cc(N3OCC[C@@H]3c3cccc(Cl)c3Cl)ncn2)c(OC)cc1N1CCN(C)CC1 [compound 481, N-(5-((6-((R)-3-(2,3-dichlorophenyl)isoxazolidine-2-yl)pyrimidine-4-yl)amino)-4-methoxy-2-(4-methylpiperazine-1-yl)phenyl)acrylamide]	A (GI50 < 50 nM)
C=CC(=O)Nc1cc(Nc2cc(N3OCC[C@@H]3c3cccc(Cl)c3F)ncn2)c(OC)cc1N1CCC(N(C)C)CC1 [compound 790, N-(5-((6-((R)-3-(3-chloro-2-fluorophenyl)isoxazolidine-2-yl)pyrimidine-4-yl)amino)-2-(4-(dimethylamino)piperidine-1-yl)-4-methoxyphenyl) acrylamide]	A (GI50 < 50 nM)
C=CCN1CCN(C2CCN(c3cc(OC)c(Nc4cc(N5OCC[C@@H]5c5cccc(OC)c5)ncn4)cc3NC(=O)C=C)CC2)CC1 [Example 215, N-(2-(4-(4-allylpiperazine-1-yl)piperidine-1-yl)-4-methoxy-5-((6-((R)-3-(3-methoxyphenyl)isoxazolidine-2-yl)pyrimidine-4-yl)amino)phenyl) acrylamide]	C (500 nM ≤ GI50 < 5000 nM)
C=CC(=O)Nc1cc(Nc2cc(N3OCC[C@@H]3c3cccc(Cl)c3)ncn2)c(OC)cc1N1CC[C@@H](N2CCOCC2)C1 [compound 465, N-(5-((6-((R)-3-(3-chlorophenyl)isoxazolidine-2-yl)pyrimidine-4-yl)amino)-4-methoxy-2-((R)-3-morpholinopyrolidine-1-yl)phenyl)acrylamide]	A (GI50 < 50 nM)
C=CC(=O)Nc1cc(Nc2cc(N3OCC[C@@H]3Cc3cccc(N(C)C)c3)ncn2)c(OC)cc1N1CCN(C2CC2)CC1 [compound 1043, N-(2-(4-cyclopropylpiperazine-1-yl)-5-((6-((S)-3-(3-(dimethylamino)benyl)isoxazolidine-2-yl)prymidine-4-yl)amino)-4-methoxyphenyl) acrylamide]	C (500 nM ≤ GI50 < 5000 nM)
C=CC(=O)Nc1cc(Nc2cc(N3OCC[C@@H]3c3ccc(Cl)c(F)c3)ncn2)c(OC)cc1N1CCC(N2CCN(C3CC3)CC2)CC1 [Example 63, N-(5-((6-((R)-3-(4-chloro-3-fluorophenyl)isoxazolidine-2-yl)pyrimidine-4-yl)amino)-2-(4-(4-cyclopropylpiperazine-1-yl)piperidine-1-yl)-4-methoxyphenyl) acrylamide]	A (GI50 < 50 nM)
C=CC(=O)Nc1cc(Nc2cc(N3OCC[C@@H]3c3cccc(Cl)c3F)ncn2)c(OC)cc1N1CCC(N2C[C@H]3CC[C@@H](C2)O3)CC1 [compound 322, N-(2-(4-((1R,5S)-8-oxa-3-azabicyclo[3.2.1]octan-3-yl)piperidine-1-yl)-5-((6-((R)-3-(3-chloro-2-fluorophenyl)isoxazolidine-2-yl)pyrimidine-4-yl)amino)-4-methoxyphenyl) acrylamide]	A (GI50 < 50 nM)
C=CC(=O)Nc1cc(Nc2cc(N3OCC[C@@H]3Cc3ccccc3)ncn2)c(OC)cc1N1CCN(CCN(C)C)CC1 [compound 961, N-(5-((6-((S)-3-benzylisoxazolidine-2-yl)pyrimidine-4-yl)amino)-2-(4-(2-(dimethylamino)ethyl)piperazine-1-yl)-4-methoxyphenyl) acrylamide]	A (GI50 < 50 nM)
C=CC(=O)Nc1cc(Nc2cc(N3OCC[C@@H]3c3ccc(Cl)c(F)c3)ncn2)c(OC)cc1N1CCOCC1 [compound 854, N-(5-((6-((R)-3-(4-chloro-3-fluorophenyl)isoxazolidine-2-yl)pyrimidine-4-yl)amino)-4-methoxy-2-morpholinophenyl) acrylamide]	A (GI50 < 50 nM)
C=CC(=O)Nc1cc(Nc2cc(N3OCC[C@@H]3c3ccc(F)cc3F)ncn2)c(OC)cc1N1CCC(N2C[C@H]3C[C@@H]2CN3CC)CC1 [compound 425, N-(5-((6-((R)-3-(2,4-difluorophenyl)isoxazolidine-2-yl)pyrimidine-4-yl)amino)-2-(4-((1R,4R)-5-ethyl-2,5-diazabicyclo [2.2.1]heptane-2-yl)piperidine-1-yl)-4-methoxyphenyl) acrylamide]	A (GI50 < 50 nM)
C=CC(=O)Nc1cc(Nc2cc(N3OCC[C@@H]3c3c(F)ccc(F)c3F)ncn2)c(OC)cc1N1CCC(N2C[C@H]3C[C@@H]2CO3)CC1 [compound 641, N-(2-(4-((1R,4R)-2-oxa-5-azabicyclo[2.2.1]heptane-5-yl)piperidine-1-yl)-4-methoxy-5-((6-((R)-3-(2,3,6-trifluorophenyl)isoxazolidine-2-yl)pyrimidine-4-yl)amino)phenyl)acrylamide]	A (GI50 < 50 nM)
C=CC(=O)Nc1cc(Nc2cc(N3OCC[C@@H]3c3ccc(F)c(F)c3)ncn2)c(OC)cc1N1CCC(N2CCN(C3CCC3)CC2)CC1 [Example 186, N-(2-(4-(4-cyclobutylpiperazine-1-yl)piperidine-1-yl)-5-((6-((R)-3-(3,4-difluorophenyl)isoxazolidine-2-yl)pyrimidine-4-yl)amino)-4-methoxyphenyl) acrylamide]	A (GI50 < 50 nM)
C=CC(=O)Nc1cc(Nc2cc(N3OCC[C@@H]3c3ccc(F)c(Cl)c3F)ncn2)c(OC)cc1N1CCC(N(C)C)CC1 [compound 638, N-(5-((6-((R)-3-(3-chloro-2,4-difluorophenyl)isoxazolidine-2-yl)pyrimidine-4-yl)amino)-2-(4-(dimethylamino)piperidine-1-yl)-4-methoxyphenyl) acrylamide]	A (GI50 < 50 nM)
C=CC(=O)Nc1cc(Nc2cc(N3OCC[C@@H]3c3cccc(C)c3F)ncn2)c(OC)cc1N1CCC(N2CCN(C3CCC3)CC2)CC1 [Example 78, N-(2-(4-(4-cyclobutylpiperazine-1-yl)piperidine-1-yl)-5-((6-((R)-3-(2-fluoro-3-methylphenyl)isoxazolidine-2-yl)pyrimidine-4-yl)amino)-4-methoxyphenyl) acrylamide]	A (GI50 < 50 nM)
C=CC(=O)Nc1cc(Nc2cc(N3OCC[C@@H]3c3cc(F)ccc3F)ncn2)c(OC)cc1N1C[C@H]2C[C@@H]1CO2 [compound 328, N-(2-((1R,4R)-2-oxa-5-azabicyclo[2.2.1]heptane-5-yl)-5-((6-((R)-3-(2,5-difluorophenyl)isoxazolidine-2-yl)pyrimidine-4-yl)amino)-4-methoxyphenyl) acrylamide]	A (GI50 < 50 nM)
C=CC(=O)Nc1cc(Nc2cc(N3OCC[C@@H]3c3cccc(F)c3Cl)ncn2)c(OC)cc1N1CCN(C)CC1 [compound 552, N-(5-((6-((R)-3-(2-chloro-3-fluorophenyl)isoxazolidine-2-yl)pyrimidine-4-yl)amino)-4-methoxy-2-(4-methylpiperazine-1-yl)phenyl)acrylamide]	A (GI50 < 50 nM)
C=CC(=O)Nc1cc(Nc2cc(N3OCC[C@@H]3c3cccc(C)c3F)ncn2)c(OC)cc1N1CCN(C)CC1 [compound 845, N-(5-((6-((R)-3-(2-fluoro-3-methylphenyl)isoxazolidine-2-yl)pyrimidine-4-yl)amino)-4-methoxy-2-(4-methylpiperazine-1-yl)phenyl)acrylamide]	A (GI50 < 50 nM)
C=CC(=O)Nc1cc(Nc2cc(N3OCC[C@@H]3Cc3ccccc3)ncn2)c(OC)cc1N1CCN(C(C)C)CC1 [compound 954, N-(5-((6-((S)-3-benzylisoxazolidine-2-yl)pyrimidine-4-yl)amino)-2-(4-isopropylpiperazine-1-yl)-4-methoxyphenyl) acrylamide]	A (GI50 < 50 nM)
C=CC(=O)Nc1cc(Nc2cc(N3OCC[C@@H]3c3cccc(F)c3F)ncn2)c(OC)cc1N1CCN(C)CC1 [compound 925, N-(5-((6-((R)-3-(2,3-difluorophenyl)isoxazolidine-2-yl)pyrimidine-4-yl)amino)-4-methoxy-2-(4-methylpiperazine-1-yl)phenyl)acrylamide]	A (GI50 < 50 nM)
C=CC(=O)Nc1cc(Nc2cc(N3OCC[C@@H]3c3cccc(C#N)c3)ncn2)c(OC)cc1N1CCC(N2CCN(CCC)CC2)CC1 [compound 432, N-(5-((6-((R)-3-(3-cyanophenyl)isoxazolidine-2-yl)pyrimidine-4-yl)amino)-4-methoxy-2-(4-(4-propylpiperazine-1-yl)piperidine-1-yl)phenyl) acrylamide]	A (GI50 < 50 nM)
C=CC(=O)Nc1cc(Nc2cc(N3OCC[C@@H]3c3ccc(F)cc3F)ncn2)c(OC)cc1N1CCC(N2CCN(CC)CC2)CC1 [compound 424, N-(5-((6-((R)-3-(2,4-difluorophenyl)isoxazolidine-2-yl)pyrimidine-4-yl)amino)-2-(4-(4-ethylpiperazine-1-yl)piperidine-1-yl)-4-methoxyphenyl) acrylamide]	A (GI50 < 50 nM)
C=CC(=O)Nc1cc(Nc2cc(N3OCC[C@@H]3c3cc(F)cc(F)c3)ncn2)c(OC)cc1N1CCC(N2C[C@@H]3C[C@H]2CN3CC)CC1 [Example 264, N-(5-((6-((R)-3-(3,5-difluorophenyl)isoxazolidine-2-yl)pyrimidine-4-yl)amino)-2-(4-((1S,4S)-5-ethyl-2,5-diazabicyclo[2.2.1]heptane-2-yl)piperidine-1-yl)-4-methoxyphenyl) acrylamide]	A (GI50 < 50 nM)
C=CC(=O)Nc1cc(Nc2cc(N3OCC[C@H]3Cc3cccnc3)ncn2)c(OC)cc1N1CCC(N2CCN(C3CC3)CC2)CC1 [compound 988, N-(2-(4-(4-cyclopropylpiperazine-1-yl)piperidine-1-yl)-4-methoxy-5-((6-((R)-3-(pyridine-3-ylmethyl)isoxazolidine-2-yl)pyrimidine-4-yl)amino)phenyl) acrylamide]	B (50 nM ≤ GI50 < 500 nM)
